Data reported in patent US10669268B2, “Bicyclic derivatives” (Hoffmann-La Roche Inc., priority 2012, dated 2020).

biological target: ATX (human His-tagged) (Homo sapiens (Human), UniProt Q13822); assay: Human ATX enzyme inhibition assay (fluorescence quenching, MR121 substrate); format: biochemical; settings: 30 nM ATX, 1 μM MR121 substrate, 30° C., pH 8.0
Protocol: Human ATX Enzyme Inhibition Assay
Assay working solutions were made as follows:
Assay buffer (50 mM Tris-HCl, 140 mM NaCl, 5 mM KCl, 1 mM CaCl2, 1 mM MgCl2, 0.01% Triton-X-100, pH 8.0;
MR121 substrate solution: MR121 substrate stock solution (800 μM MR121 substrate in DMSO), diluted to 2-5× final concentration in assay buffer.
10 μL of MR121 substrate solution was added (1 μM final concentration), mixed 30 times and then incubated for 15 minutes at 30° C.

IC50 [nM]	Structure (SMILES)
50	COc1cc(Cl)cc(COC(=O)N2C[C@@H]3CN(C(=O)c4ccc5[nH]nnc5c4)C[C@@H]3C2)c1 [Example 4.30, (3aR,6aS)-3-chloro-5-methoxybenzyl 5-(1H-benzo[d][1,2,3]triazole-5-carbonyl)hexahydropyrrolo[3,4-c]pyrrole-2(1H)-carboxylate]
162	O=C(/C=C/c1ccc(OC(F)(F)F)cc1)N1CC[C@@H]2CN(C(=O)NCCc3cnn[nH]3)C[C@@H]2CC1 [Example 9.09, (3aR,8aS)-N-(2-(1H-1,2,3-triazol-5-yl)ethyl)-6-((E)-3-(4-(trifluoromethoxy)-phenyl)acryloyl)octahydropyrrolo[3,4-d]azepine-2(1H)-carboxamide]
21	COc1cc(OC(F)(F)F)ccc1COC(=O)N1CC[C@@H]2CN(C(=O)c3ccc4[nH]nnc4c3)C[C@H]2C1 (relative stereo) [Example 1.33, trans-2-(1H-benzotriazole-5-carbonyl)-octahydro-pyrrolo[3,4-c]pyridine-5-carboxylic acid 2-methoxy-4-trifluoromethoxy-benzyl ester]
44	O=C(/C=C/c1ccc(OC(F)(F)F)cc1)N1C[C@H]2CCN(C(=O)c3ccc4[nH]nnc4c3)C[C@@H]2C1 (single isomer, unassigned) [Example 15.25]
3850	O=C(OCC1C[C@H]2CC[C@@H]1C2)N1C[C@@H]2CN(C(=O)c3ccc4[nH]nnc4c3)C[C@@H]2C1 (stereo partly drawn) [Example 4.32, (3aS,6aR)-5-(1H-benzotriazole-5-carbonyl)-hexahydro-pyrrolo[3,4-c]pyrrole-2-carboxylic acid (1R,4S)-1-bicyclo[2.2.1]hept-2-ylmethyl ester]
13	N#Cc1ccc(/C=C/C(=O)N2CC[C@@H]3CN(C(=O)c4ccc5[nH]nnc5c4)C[C@@H]3CC2)cc1 [Example 15.11]
10	CC(C)c1cc(C#N)ccc1COC(=O)N1C[C@@H]2CN(C(=O)c3ccc4[nH]nnc4c3)C[C@H]2C1 [Example 4.52, (3aS,6aS)-5-(1H-benzotriazole-5-carbonyl)-hexahydro-pyrrolo[3,4-c]pyrrole-2-carboxylic acid 4-cyano-2-isopropyl-benzyl ester]
14	COc1ccc(CCC(=O)N2CC[C@@H]3CN(C(=O)c4ccc5[nH]nnc5c4)C[C@@H]3CC2)c(C(F)(F)F)c1 [Example 17.18, 1-((3aR,8aS)-2-(1H-benzo[d][1,2,3]triazole-5-carbonyl)octahydropyrrolo[3,4-d]azepin-6(7H)-yl)-3-(4-methoxy-2-(trifluoromethyl)phenyl)propan-1-one]
8	CC(C)c1cc(C#N)ccc1OCC(=O)N1C[C@@H]2CN(C(=O)c3ccc4[nH]nnc4c3)C[C@H]2C1 [Example 19.03, 4-{2-[(3aS,6aS)-5-(1H-benzotriazole-5-carbonyl)-hexahydro-pyrrolo[3,4-c]pyrrol-2-yl]-2-oxo-ethoxy}-3-isopropyl-benzonitrile]
29	O=C(c1ccc2[nH]nnc2c1)N1C[C@H]2CN(C(=O)N3CCC(c4ccc(Cl)cc4)CC3)C[C@@H]2C1 [Example 20, (1H-Benzotriazol-5-yl)-{(3aS,6aS)-5-[4-(4-chloro-phenyl)-piperidine-1-carbonyl]-hexahydro-pyrrolo[3,4-c]pyrrol-2-yl}-methanone]

Structure (SMILES)	IC50 [nM]
O=C(c1cnc(OC2CCC2)c(C(F)(F)F)c1)N1C[C@@H]2CN(C(=O)c3ccc4[nH]nnc4c3)C[C@H]2C1 [Example 19.39, ((3aS,6aS)-5-(1H-benzo[d][1,2,3]triazole-5-carbonyl)hexahydropyrrolo[3,4-c]pyrrol-2(1H)-yl)(6-cyclobutoxy-5-(trifluoromethyl)pyridin-3-yl)methanone]	7
